Test results: patent publication US9353100B2, “Macrocyclic serine protease inhibitors, pharmaceutical compositions thereof, and their use for treating HCV infections” (Idenix Pharmaceuticals LLC, priority 2011, dated 2016)
Like-named read-outs stand apart in the source and are kept apart here.

Key:
HCV NS3-NS4A protease 1b = target: T1, HCV NS3-NS4A protease 1b (Hepatitis C virus genotype 1b, UniProt Q9WMX2); assay: HCV protease assay (FRET peptide), genotype 1b; format: biochemical
T1 construct: HCV NS3-NS4A protease, which was produced according to the method of Taremi et al; made in house
T1 sequence (Q9WMX2 1658-1711): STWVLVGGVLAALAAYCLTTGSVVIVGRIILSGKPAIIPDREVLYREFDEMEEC
T1 sequence (Q9WMX2 1027-1208): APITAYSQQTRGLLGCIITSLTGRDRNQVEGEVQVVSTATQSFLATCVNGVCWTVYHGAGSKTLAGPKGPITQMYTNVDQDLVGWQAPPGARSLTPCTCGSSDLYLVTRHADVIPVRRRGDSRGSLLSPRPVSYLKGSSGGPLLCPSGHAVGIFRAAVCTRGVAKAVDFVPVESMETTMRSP
Description: (§1) General procedure: Measurement of the inhibitory effect of compounds on HCV protease activity was performed using the HiLyte Fluor™ TR/QXL™ 610 FRET peptide from AnaSpec, Inc. (San Jose, Calif.) under conditions developed in-house using 2-3 nM HCV NS3-NS4A protease, which was produced according to the method of Taremi et al. (Protein Science, 1998, 7, 2143-2149). The compounds were tested at a variety of concentrations in assay buffer containing a final DMSO concentration of 5%. Reactions were allowed to proceed for 60 min at 30° C. and fluorescence measurements were recorded with a PerkinElmer Victor^3 V 1420 Multilabel Counter. The IC50 values were determined from the percent inhibition versus concentration data using a sigmoidal non-linear regression analysis based on four parameters with XLfit 4.1 software.

[1] = tested on: HCV genotype 1a H77 strain subgenomic luciferase replicon (H1a-luc) in Huh-7 cells; assay: HCV luciferase replicon assay, genotype 1a (H1a-luc); format: cell-based; details: for FS (1a/1b): EC50 against genotype 1a HCV divided by EC50 against genotype 1b, replicon luciferase assay; for EC50: genotype 1a H77 replicon, Huh-7 (H1a-luc), 72 hours, read-out: EC50 Against Relpicon 1a
Description: (§2) General procedure: The HCV luciferase replicon assay measures the ability of a test compound to inhibit HCV replication in cell culture after 3 days of treatment in a human hepatoma cell line (Huh-7) bearing a HCV replicon containing a luciferase-neomycin phosphotransferase fusion gene. The inhibition of HCV replication was measured by quantification of luciferase protein expression. Briefly, Huh-7 cells containing either the HCV genotype 1a H77 strain or genotype 1b Con1 strain subgenomic luciferase replicon (H1a-luc or Zluc, respectively) were grown in DMEM containing glucose, L-glutamine and sodium pyruvate, 10% fetal bovine serum (FBS), 100 IU/mL penicillin, 100 μg/mL streptomycin, 2 mM GlutaMAX, non-essential amino acids and 0.25 (H1a-luc) or 0.5 (Zluc) mg/mL G418. GlutaMAX was obtained from Invitrogen, Corp.; all other media reagents were obtained from Mediatech, Inc. For dose-response testing, the cells were seeded in 96-well plates at 1×10^4 (H1a-luc) or 7.5×10^3 (Zluc) cells/well in a volume of 50 μL and incubated at 37° C./5% CO2. Three hours after plating, 50 μL of ten 5-fold serial dilutions of compound were added, and cell cultures were incubated at 37° C./5% CO2 for 72 hours. In all cases, Huh-7 cells lacking the HCV replicon served as negative control. To assess luciferase expression, the media/compound was removed from the plates and ONE-glo Luciferase assay reagent (Promega) was added to each well. The assay plates were shaken for 3 minutes at room temperature and luciferase activity for each well was measured with a 1 sec read time on the Victor^3V multilabel counter using a 700 nm cut-off filter (Perkin Elmer). EC50 values were calculated from dose response curves from the resulting best-fit equations determined by Microsoft Excel and XLfit 4.1 software.

[2] = tested on: HCV genotype 1b Con1 strain subgenomic luciferase replicon (Zluc) in Huh-7 cells; assay: HCV luciferase replicon assay, genotype 1b (Zluc); format: cell-based; details: genotype 1b Con1 replicon, Huh-7 (Zluc), 72 hours, read-out: EC50 Against Relpicon 1b
Description: as §2

Zluc cells = assay: Cytotoxicity evaluation, Cell Titer 96 AQueous One Solution; format: cell-based, human; details: cellular viability
Description: (§3) For cytotoxicity evaluation, Zluc cells were treated with compounds as described above and cellular viability was monitored using the Cell Titer 96 AQueous One Solution Cell Proliferation Assay (Promega). Plates were then read at 490 nm in a Victor^3V 1420 multilabel counter (Perkin Elmer) and CC50 concentrations were determined using Microsoft Excel and XLfit 4.1 software.

HCV NS3-NS4A protease 1a = target: T2, HCV NS3-NS4A protease 1a (Hepatitis C virus genotype 1a, UniProt P27958); assay: HCV protease assay (FRET peptide), genotype 1a; format: biochemical; details: genotype 1a protease; 60 min at 30° C.; read-out: IC50 Against HS3/4A 1a
T2 construct: HCV NS3-NS4A protease, which was produced according to the method of Taremi et al; made in house
T2 sequence (P27958 1027-1208): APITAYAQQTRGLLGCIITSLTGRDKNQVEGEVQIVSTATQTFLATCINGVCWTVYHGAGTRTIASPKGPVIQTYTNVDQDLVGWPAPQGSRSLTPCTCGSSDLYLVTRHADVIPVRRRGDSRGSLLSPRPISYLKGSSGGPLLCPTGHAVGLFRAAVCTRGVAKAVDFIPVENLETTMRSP
T2 sequence (P27958 1658-1711): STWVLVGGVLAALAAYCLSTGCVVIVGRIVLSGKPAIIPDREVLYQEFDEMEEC
Description: as §1

HCV NS3-NS4A protease 2a = target: T3, HCV NS3-NS4A protease 2a (Hepatitis C virus genotype 2a, UniProt Q99IB8); assay: HCV protease assay (FRET peptide), genotype 2a; format: biochemical; details: genotype 2a protease; 60 min at 30° C.; read-out: IC50 Against HS3/4A 2a
T3 construct: HCV NS3-NS4A protease, which was produced according to the method of Taremi et al; made in house
T3 sequence (Q99IB8 1662-1715): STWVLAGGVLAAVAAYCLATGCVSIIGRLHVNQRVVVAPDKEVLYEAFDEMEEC
T3 sequence (Q99IB8 1031-1212): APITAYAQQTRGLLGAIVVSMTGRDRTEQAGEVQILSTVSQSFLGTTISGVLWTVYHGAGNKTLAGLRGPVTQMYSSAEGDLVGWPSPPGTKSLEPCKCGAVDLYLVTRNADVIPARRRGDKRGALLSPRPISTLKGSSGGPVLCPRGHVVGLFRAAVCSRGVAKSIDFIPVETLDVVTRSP
Description: as §1

HCV NS3-NS4A protease 3a = target: T4, HCV NS3-NS4A protease 3a (Hepatitis C virus genotype 3a, UniProt Q81258); assay: HCV protease assay (FRET peptide), genotype 3a; format: biochemical
T4 construct: HCV NS3-NS4A protease, which was produced according to the method of Taremi et al; made in house
T4 sequence (Q81258 1664-1717): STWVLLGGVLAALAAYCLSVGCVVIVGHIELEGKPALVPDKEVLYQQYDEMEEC
T4 sequence (Q81258 1033-1214): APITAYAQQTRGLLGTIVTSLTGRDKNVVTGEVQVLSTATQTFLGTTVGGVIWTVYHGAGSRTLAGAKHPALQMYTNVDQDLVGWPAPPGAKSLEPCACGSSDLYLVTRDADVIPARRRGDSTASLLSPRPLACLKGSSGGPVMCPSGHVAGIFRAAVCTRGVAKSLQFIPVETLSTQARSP
Description: as §1

HCV NS3-NS4A protease 4a = target: T5, HCV NS3-NS4A protease 4a (Hepatitis C virus genotype 4a, UniProt O39929); assay: HCV protease assay (FRET peptide), genotype 4a; format: biochemical; details: genotype 4a protease; 60 min at 30° C.; read-out: IC50 Against HS3/4A 4a
T5 construct: HCV NS3-NS4A protease, which was produced according to the method of Taremi et al; made in house
T5 sequence (O39929 1658-1711): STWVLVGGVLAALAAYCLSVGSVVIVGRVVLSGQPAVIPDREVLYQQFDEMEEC
T5 sequence (O39929 1027-1208): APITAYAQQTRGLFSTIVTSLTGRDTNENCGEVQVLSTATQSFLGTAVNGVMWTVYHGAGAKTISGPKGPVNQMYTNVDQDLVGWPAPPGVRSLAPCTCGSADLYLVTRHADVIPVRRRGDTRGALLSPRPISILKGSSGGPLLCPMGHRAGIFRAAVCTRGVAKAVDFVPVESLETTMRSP
Description: as §1

HCV NS3-NS4A protease 5a = target: T6, HCV NS3-NS4A protease 5a (Hepatitis C virus genotype 5a, UniProt O39928); assay: HCV protease assay (FRET peptide), genotype 5a; format: biochemical; details: genotype 5a protease; 60 min at 30° C.; read-out: IC50 Against HS3/4A 5a
T6 construct: HCV NS3-NS4A protease, which was produced according to the method of Taremi et al; made in house
T6 sequence (O39928 1659-1712): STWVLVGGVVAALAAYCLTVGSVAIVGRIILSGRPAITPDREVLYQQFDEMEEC
T6 sequence (O39928 1028-1209): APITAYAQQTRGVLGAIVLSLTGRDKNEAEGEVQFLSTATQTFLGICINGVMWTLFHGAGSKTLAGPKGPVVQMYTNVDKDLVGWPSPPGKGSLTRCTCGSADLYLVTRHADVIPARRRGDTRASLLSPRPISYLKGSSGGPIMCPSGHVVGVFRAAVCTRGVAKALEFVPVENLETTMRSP
Description: as §1

HCV NS3-NS4A protease 6a = target: T7, HCV NS3-NS4A protease 6a (Hepatitis C virus genotype 6a, UniProt O39927); assay: HCV protease assay (FRET peptide), genotype 6a; format: biochemical; details: genotype 6a protease; 60 min at 30° C.; read-out: IC50 Against HS3/4A 6a
T7 construct: HCV NS3-NS4A protease, which was produced according to the method of Taremi et al; made in house
T7 sequence (O39927 1031-1212): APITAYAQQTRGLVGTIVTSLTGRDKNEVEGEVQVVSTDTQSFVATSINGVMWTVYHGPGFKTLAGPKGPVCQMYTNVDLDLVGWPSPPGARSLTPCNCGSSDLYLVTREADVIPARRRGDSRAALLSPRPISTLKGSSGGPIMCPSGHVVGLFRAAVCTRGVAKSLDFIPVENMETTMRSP
T7 sequence (O39927 1662-1715): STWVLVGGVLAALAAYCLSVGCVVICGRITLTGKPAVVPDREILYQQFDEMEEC
Description: as §1

[3] = Cytotoxicity evaluation, Cell Titer 96 AQueous One Solution; format: cell-based, human; details: human; Zluc cells, cellular viability
Description: as §3

[4] = tested on: genotype 1b HCV replicon in Zluc cells; assay: Genotype 1b HCV replicon luciferase assay with 10% FCS or 45% human serum; format: cell-based; details: EC50 in presence of 45% HS divided by EC50 in presence of 10% FCS
Description: as §2
In Table 1, the values of FS with 45% HS were determined using the genotype 1b HCV replicon luciferase screening assay using Zluc cells, except that activity in the presence of 10% fetal calf serum (FCS) or 45% human serum (HS) was determined in parallel. The fold shift (FS) with 45% HS is the EC50 value in the presence of 45% HS divided by the EC50 value in the presence of 10% FCS. FS (1a/1b) is the EC50 value against genotype 1a HCV divided by the EC50 value against the genotype 1b in the replicon luciferase screening assay.

Molecule | IC50 (HCV NS3-NS4A protease 1b; genotype 1b protease, 60 min at 30° C., read-out: IC50 Against HS3/4A 1b) [nM] | FS (1a/1b) [1] | EC50 [1] [nM] | EC50 [2] [nM] | CC50 (Zluc cells) [nM] | IC50 (HCV NS3-NS4A protease 1a) [nM] | IC50 (HCV NS3-NS4A protease 1b) [nM] | IC50 (HCV NS3-NS4A protease 2a) [nM] | IC50 (HCV NS3-NS4A protease 3a) [nM] | IC50 (HCV NS3-NS4A protease 4a) [nM] | IC50 (HCV NS3-NS4A protease 5a) [nM] | IC50 (HCV NS3-NS4A protease 6a) [nM] | EC50 ([1]; Hepatitis C virus) [nM] | EC50 ([2]; Hepatitis C virus) [nM] | CC50 [3] [nM] | FS with 45% HS [4]
(1R,4R,6R,15R,18S)-1-methyl-cyclopropanesulfonic acid [18-(2,5-diphenyl-thiazol-4-yloxy)-13-methyl-2,14-dioxo-3,13-diaza-tricyclo[13.4.0.0]nonadec-7-ene-4-carbonyl]-amide [Compound D103] | 10 to 100 | 113 | 1000 to 10000 | 10 to 100 | > 10000 | – | – | – | – | – | – | – | – | – | – | –
Cc1csc(-c2cc(O[C@H]3CC[C@H]4C(=O)N(C)CCCC/C=C\[C@@H]5C[C@@]5(C(=O)NS(=O)(=O)C5(C)CC5)NC(=O)[C@@H]4C3)nc(-c3nc(C(F)(F)F)cs3)n2)n1 [Compound C101, (1R,4R,6R,15R,18S)-1-methyl-cyclopropanesulfonic acid {13-methyl-18-[6-(4-methyl-thiazol-2-yl)-2-(4-trifluoromethyl-thiazol-2-yl)-pyrimidin-4-yloxy]-2,14-dioxo-3,13-diaza-tricyclo[13.4.0.0]nonadec-7-ene-4-carbonyl}-amide] | – | 7 | – | – | – | < 10 | < 10 | < 10 | < 10 | < 10 | < 10 | < 10 | < 10 | < 10 | > 10000 | 16
